Data set [1] in a line: Acute toxicity test of TG-028. It counts as in vivo. Here is the method:
In addition, an acute toxicity test of TG-028 was conducted.

Data set [2] concerns rats with permanent ligation of bilateral common carotid arteries (2VO). Description: Chronic cerebral ischemia model in rats with permanent ligation of bilateral common carotid arteries (2VO). Format: in vivo. An excerpt: After obtaining the active molecules that can promote the expression of VEGF-A mRNA in the animal model of inflammatory angiogenesis, a rat model of cerebral infarction was used for further verification. Following the method as described in Longa, E. Z., Longa, E. Z., Weinstein, P. R., Carlson, S. & Commin, R. Reversible middle cerebral artery occlusion without craniectomy in rats. [J]. Stroke, 1989. 1: 84-91, an acute cerebral infarction model was established in rats with middle cerebral artery occlusion (MCAO); and following the method as described in C. dela Torre, T. Fortin, G. A. S. Park, K. S. Butler, P. Kozlowski, B. A. Pappas, H. de Socarraz, J. K. Saunders and M. T. Richard. [J]. Brain Research, 1992. 582:186-195, a chronic cerebral ischemia model was established in rats with permanent ligation of bilateral common carotid arteries (2VO). The inhibition on cerebral infarction and neuroprotection for brain injury of the active molecules screened in Effect Example 2 were verified.
In the later period of the present invention, a chronic cerebral ischemia model was established in rats with permanent ligation of bilateral common carotid arteries (2VO). TG-028 (5 mg/kg) was administered to 5 rats in each group daily by intraperitoneal injection for 3 weeks. The effects of TG-028 and the control drug Edaravone (40 mg/kg) in the rat model of chronic cerebral ischemia were observed.
3 weeks after the establishment of the rat model of 2VO chronic cerebral ischemia, the Morris water maze experiment was performed on the test rats to determine the effects of drugs on animal learning and memory. The test rats were subjected to ambient positioning and memory training for 5 days. On Day 5 of the training, a positioning navigation experiment was carried out, and the duration for each group of rats from the time of entering the water from different water entry points facing the pool wall to the time of finding the platform, that is, the escape incubation period, was recorded. On Day 6, the platform was removed and a space exploration experiment was carried out. The swimming time of the rats in the target quadrant, the dwell time in the target quadrant, the distance in the target quadrant, and the number of passes through the platform were recorded in 120 s from the time of entering water from a quadrant opposing the target quadrant. The results of the water maze positioning and navigation experiment are shown in FIG. 8 (where Sham is a sham operation group).
After permanent ligation of the bilateral common carotid arteries, a 5-day positioning training was carried out, and […] Morris water maze space exploration experiment was performed after the training.

Data set [3] relates to HUVEC-12 endothelial cells. Kind of data set: Migration of HUVEC-12 endothelial cells (scratch test). It counts as cell-based, Human. Here is the method: (§1) The experiment included seven groups. In Group 1, HUVEC-12 endothelial cells (purchased from Shanghai RongChuang Biotech Co., Ltd.) were treated directly with simple DMEM medium (Gibcol, Shanghai) containing 10% FBS (SERANA, Germany) (control). In Group 2, the endothelial cells were treated with the supernatant obtained 24 h after macrophages were cultured with DMEM medium containing 10% FBS (s-control). In Group 3, the endothelial cells cultured with DMEM medium containing 10% FBS were treated directly with TG-028 (TG-028, 10 μM). In Group 4, the endothelial cells were treated with the supernatant obtained after macrophages cultured with DMEM medium containing 10% FBS were treated and co-incubated with TG-028 for 24 h (s-TG-028, […]). In Group 5, the endothelial cells cultured with DMEM medium containing 10% FBS were treated directly with Cpd-18 (Salvianolate) (cpd-18, 10 μM). In Group 6, the endothelial cells were treated with the supernatant obtained after macrophages cultured with DMEM medium containing 10% FBS were treated and co-incubated with Cpd-18 (Salvianolate, 10 μM) for 24 h (s-cpd18). In Group 7, the endothelial cells cultured with DMEM medium containing 10% FBS were treated directly with VEGFD (Recombinant Human VEGF165, 10 ng/mL).
Human umbilical vein endothelial cells HUVEC-12 in logarithmic growth phase were counted, adjusted to a cell density of 5×10^5 cells/mL, and inoculated in 1 mL per well in a 6-well plate. The cells were conventionally cultured in an incubator to form monolayer cells of 90% confluency. The 6-well plate fully plated with cells was scratched perpendicular to the cell surface with a 200 μL pipette tip from one end to the other end of the well. The scratches were made transversely with the pipette tip being as perpendicular as possible to the bottom of the plate. […]
The medium was aspirated and the cells scratched off were washed off with PBS. […] The migration of endothelial cells was detected according to the cell scratch method and the relative migration rate was calculated. […]

The subject of data set [4] is HUVEC-12 endothelial cells. Kind of data set: Tubule formation of HUVEC-12 endothelial cells (Matrigel). Format: cell-based, Human. Here is the method:
as §1
A 96-well plate and sterile yellow pipette tip were stored overnight in a refrigerator at −20° C. The packed Matrigel was thawed overnight in a refrigerator at 4° C. before the experiment. On the following day, the Matrigel thawed was centrifuged for a few minutes. 60 μL per well of the pre-cooled Matrigel was added to a 96-well plate in an ice bath on a ultra-clean bench, and then allowed to stand in an incubator for 1 h. After Matrigel was solidified, HUVEC-12 cells in logarithmic growth phase were taken and adjusted for the cell density. The cells were well mixed with each group of medium at a density of 5×10^4 cells/well and inoculated into a 96-well plate. […] The tube-like structure was analyzed by ImageJ image-analysis software, and the tube formation ability was evaluated using number of master junction as a quantitative index.

The mark [5] stands for this setting: HUVEC-12 treated with supernatant of macrophages co-incubated 24 h with compound, 10 μM (s- groups).

Molecules are shown by their SMILES.

What is called LD50 is the dose expected to kill half of the subjects tested. A low value points to a more toxic substance. Consider `COc1ccc(CCCCO[C@@H]2O[C@H](CO)[C@@H](O)[C@H](O)[C@H]2O)cc1` [TG-028], for which the “therapeutic index LD50/ED50” value in data set [1] (616.59/2.61) came to 236. Besides, the LD50 in data set [1] (in vivo, acute toxicity test) was determined as 617 mg/kg. Also, the “HE staining and Nissl staining of brain sections, hippocampal CA3 neurons (in words)” value in data set [2] (3 weeks after chronic cerebral ischemia, compared with 2VO+NaCl, FIG. 10) was “neatly and densely arranged”. Also, the “Morris water maze positioning and navigation: escape incubation period and total distance (in words)” value in data set [2] (TG-028 5 mg/kg, Edaravone 40 mg/kg, 3 weeks of administration, FIG. 8) is on record as “comparable effect”. Further, in data set [2] (TG-028 5 mg/kg, Edaravone 40 mg/kg, 3 weeks, FIG. 9), the “Morris water maze space exploration: number of passes through the platform compared with 2VO+NaCl group” value is “increases significantly”. Also, the “change in body weight compared with sham operation group (in words)” value in data set [2] (TG-028 5 mg/kg, Edaravone 40 mg/kg, i.p. daily, after 1 week, FIG. 7) is “no difference in weight change between the treatment group with TG-028 and the sham operation group”. Moreover, the “effect on migration of endothelial cells (in words)” value in data set [3] (setting [5]) is “comparable effect on the migration of endothelial cells as VEGF”; in data set [3] (direct treatment of HUVEC-12, 24 h, compounds 10 μM, VEGF165 10 ng/mL, vs control medium), “significant effect on the migration of endothelial cells”. Further, the “effect on tube formation of endothelial cells (in words)” value in data set [4] (setting [5]) is given as “comparable effect on the tube formation of endothelial cells as VEGF”; in data set [4] (direct treatment of HUVEC-12, 3 h, compounds 10 μM, VEGF165 10 ng/mL, vs control medium) it was “significant effect on the tube formation of endothelial cells”.

For the origin of these results see patent US11325937B2, “Glycoside compound and preparation method therefor, composition, application, and intermediate” (SHANGHAI HUTCHISON PHARMACEUTICALS LIMITED, priority 2018, dated 2022).
